# Results published in paper PMC12638379, “An innovative approach to development of new pyrazolylquinolin-2-one hybrids as dual EGFR and BRAF^V600E inhibitors” (Molecular Diversity, 2025).
# Where two headings read alike, the source gives them in different places.
# Test system: NCI 60 cancer cell lines
# Experiment: NCI anticancer screening over a panel of 60 cancer cells, single concentration 10 µM
# Format: cell-based, human
# Conditions: Homo sapiens, read-out: % Growth Inhibition (GI %)
# Protocol: Ten final compounds 4a–j and five intermediates 2a–e have been selected by the National Cancer Institute (NCI) for anticancer screening over a panel of 60 cancer cells that cover a variety of histological tissues, including the central nervous system, leukemia, lung, colon, kidney, ovary, breast, and prostate, using the protocol established by the National Cancer Institute (NCI). In a primary screening, each compound was screened at a concentration of 10 µM.
# Compounds 2a-e and 4a-j were selected by the National Cancer Institute (NCI) according to the protocol of the Compound Evaluation Branch of the National Cancer Institute, Bethesda, USA, for in vitro anticancer screening which refers in turn to apoptotic activity. The methodology of the NCI anticancer screening has been described in detail elsewhere (http://www.dtp.nci.nih.gov).
compound,measurement,setting,value
"COc1ccc2[nH]c(=O)cc(-n3ncc(/C(C)=N/Nc4ccc(S(N)(=O)=O)cc4)c3C)c2c1 [Compound 4c, (E)-4-(2-(1-(1-(6-methoxy-2-oxo-1,2-dihydroquinolin-4-yl)-5-methyl-1H-pyrazol-4-yl)ethylidene)hydrazineyl)benzenesulfonamide]",inhibition at 10 µM,"786-0, Renal cancer 786-0, 10 μM",< 5%
same,inhibition at 10 µM,"A498, Renal cancer A498, 10 μM",7.1%
same,inhibition at 10 µM,"A549, Non-small cell lung cancer A549/ATCC, 10 μM",< 5%
same,inhibition at 10 µM,"ACHN, Renal cancer ACHN, 10 μM",< 5%
same,inhibition at 10 µM,"BT-549, Breast cancer BT-549, 10 μM",< 5%
same,inhibition at 10 µM,"CAKI-1, Renal cancer CAKI-1, 10 μM",< 5%
same,inhibition at 10 µM,"CCRF-CEM, Leukemia CCRF-CEM, 10 μM",< 5%
same,inhibition at 10 µM,"COLO 205, Colon cancer COLO 205, 10 μM",< 5%
same,inhibition at 10 µM,"DU-145, Prostate cancer DU-145, 10 μM",< 5%
same,inhibition at 10 µM,"HCC 2998, Colon cancer HCC-2998, 10 μM",< 5%
same,inhibition at 10 µM,"HCT-116, Colon cancer HCT-116, 10 μM",< 5%
same,inhibition at 10 µM,"HL-60, Leukemia HL-60(TB), 10 μM",< 5%
same,inhibition at 10 µM,"HOP-92, Non-small cell lung cancer HOP-92, 10 μM",< 5%
same,inhibition at 10 µM,"HT-29, Colon cancer HT29, 10 μM",< 5%
same,inhibition at 10 µM,"IGROV-1, Ovarian cancer IGROV1, 10 μM",< 5%
same,inhibition at 10 µM,"K562, Leukemia K-562, 10 μM",< 5%
same,inhibition at 10 µM,"KM12, Colon cancer KM12, 10 μM",< 5%
same,inhibition at 10 µM,"Leukemia SR, 10 μM",13%
same,inhibition at 10 µM,"MCF7, Breast cancer MCF7, 10 μM",6.69%
same,inhibition at 10 µM,"MDA-MB-231, Breast cancer MDA-MB-231/ATCC, 10 μM",8.98%
same,inhibition at 10 µM,"MDA-MB-435, Melanoma MDA-MB-435, 10 μM",< 5%
same,inhibition at 10 µM,"MDA-MB-468, Breast cancer MDA-MB-468, 10 μM",7.22%
same,inhibition at 10 µM,"MOLT-4, Leukemia MOLT-4, 10 μM",< 5%
same,inhibition at 10 µM,"Melanoma M14, 10 μM",< 5%
same,inhibition at 10 µM,"Melanoma MALM-3M, 10 μM",10.6%
same,inhibition at 10 µM,"NCI-H23, Non-small cell lung cancer NCI-H23, 10 μM",6%
same,inhibition at 10 µM,"NCI-H226, Non-small cell lung cancer NCI-H226, 10 μM",8.4%
same,inhibition at 10 µM,"NCI-H460, Non-small cell lung cancer NCI-H460, 10 μM",< 5%
same,inhibition at 10 µM,"NCI-H522, Non-small cell lung cancer NCI-H522, 10 μM",11.8%
same,inhibition at 10 µM,"OVCAR-3, Ovarian cancer OVCAR-3, 10 μM",< 5%
same,inhibition at 10 µM,"OVCAR-4, Ovarian cancer OVCAR-4, 10 μM",< 5%
same,inhibition at 10 µM,"OVCAR-5, Ovarian cancer OVCAR-5, 10 μM",< 5%
same,inhibition at 10 µM,"OVCAR-8, Ovarian cancer OVCAR-8, 10 μM",< 5%
same,inhibition at 10 µM,"Prostate cancer PC-3, 10 μM",< 5%
same,inhibition at 10 µM,"RPMI-8226, Leukemia RPMI-8226, 10 μM",< 5%
same,inhibition at 10 µM,"RXF 393, Renal cancer RXF 393, 10 μM",6.12%
same,inhibition at 10 µM,"SF-268, CNS Cancer SF-268, 10 μM",< 5%
same,inhibition at 10 µM,"SF-295, CNS Cancer SF-295, 10 μM",10.5%
same,inhibition at 10 µM,"SF-539, CNS Cancer SF-539, 10 μM",5.07%
same,inhibition at 10 µM,"SK-MEL-2, Melanoma SK-MEL-2, 10 μM",< 5%
same,inhibition at 10 µM,"SK-MEL-5, Melanoma SK-MEL-5, 10 μM",< 5%
same,inhibition at 10 µM,"SK-MEL-28, Melanoma SK-MEL-28, 10 μM",< 5%
same,inhibition at 10 µM,"SK-OV-3, Ovarian cancer SK-OV-3, 10 μM",< 5%
same,inhibition at 10 µM,"SN12C, Renal cancer SN12C, 10 μM",8.13%
same,inhibition at 10 µM,"SNB-19, CNS Cancer SNB-19, 10 μM",5.89%
same,inhibition at 10 µM,"SNB-75, CNS Cancer SNB-75, 10 μM",< 5%
same,inhibition at 10 µM,"SW-620, Colon cancer SW-620, 10 μM",< 5%
same,inhibition at 10 µM,"T47D, Breast cancer T-47D, 10 μM",12.1%
same,inhibition at 10 µM,"TK-10, Renal cancer TK-10, 10 μM",< 5%
same,inhibition at 10 µM,"U-251, CNS Cancer U251, 10 μM",< 5%
same,inhibition at 10 µM,"UACC-62, Melanoma UACC-62, 10 μM",5.15%
same,inhibition at 10 µM,"UACC-257, Melanoma UACC-257, 10 μM",< 5%
same,inhibition at 10 µM,"UO-31, Renal cancer UO-31, 10 μM",12.9%
